Measurements reported in US9775902B2, “Compounds and methods for treatment of stroke” (FIBROGEN, INC, priority 2006, dated 2017).

Tested on: vascular endothelial growth factor (VEGF)
Experiment: Brain VEGF gene expression in mice after intravenous injection
Assay type: in vivo, Swiss Webster mice
Details: 20 mg/kg i.v., four hours, quantitative real time PCR normalized to 18s RNA
Protocol: The effect of compounds of the present invention on regulation of cytoprotective and neuroprotective gene expression in brain was evaluated. In one series of experiments, male Swiss Webster mice were administered by intravenous injection various compounds of the present invention. Animals treated by intravenous injection received a 6 ml/kg volume of either 5% Dextrose with an equimolar amount of Meglumine (vehicle control) or 20 mg/kg of a compound of the present invention in 5% dextrose with an equimolar amount of Meglumine Animals were euthanized four hours later and their brains placed in RNAlater (Ambion, Austin Tex.) for subsequent analysis. Tissues were homogenized in Trizol (Invitrogen, Carlsbad Calif.) using 5-mm steel beads in a Mixer Mill (Qiagen, Valencia Calif.). RNA was isolated from the Trizol solution and then further purified using RNeasy kit (Qiagen). cDNA was prepared from […] total RNA using Omniscript reverse transcriptase (Qiagen) and random hexamers. Quantitative real time PCR was performed in a 7900HT instrument (Applied Biosystems, Foster City Calif.) using TaqMan Assays-on-Demand (Applied Biosystems). Gene expression levels were normalized to that of 18s RNA.

Row | Compound | VEGF gene expression in brain
1 | Cc1nc(C(=O)NCC(=O)O)c(O)c2cc(Oc3ccccc3)ccc12 [Compound AA, [(4-Hydroxy-1-methyl-6-phenoxy-isoquinoline-3-carbonyl)-amino]-acetic acid] | 2.1
2 | O=C(O)CNC(=O)c1ncc2ccc(Sc3ccccn3)cc2c1O [Compound AB, {[4-Hydroxy-6-(pyridin-2-ylsulfanyl)-isoquinoline-3-carbonyl]-amino}-acetic acid] | 2.1
